“And” between values parts separate entries of the source, which are not always exact repeats. Equal entries are not always repeated.
Key:
Cyclophilin A = molecular target: T1, Cyclophilin A (Homo sapiens, UniProt P62937); assay: AlphaLISA inhibition of binding of biotinylated Cyclosporin A to FLAG tagged Cyclophilin A; settings: for % signal: AlphaLISA signal; for % signal / % inhibition of CsA binding to Cyclophilin A: test concentration not given; for IC50: read-out: IC50 value of CsA binding to Cyclophilin A
T1 construct: made in house
Outline: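 Inhibition of biotin-CsA binding to FLAG-tagged Cyclophilin A read by AlphaLISA (ex 680, em 615 nm). Working stocks were 6 nM biotinylated CsA and 25 nM FLAG-CypA; beads and compound were combined first for 30 min, then protein added for 60 min, all at room temperature in the dark, with DMSO and cyclosporin A controls.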

HeLa-CyclophilinA cells = assay: Biosensor cell permeability assay (cyclophilin destabilizing mutant), HeLa-CyclophilinA cells; type: cell-based; settings: 72 hrs
Method: (§1) Cell permeability of compounds can be determined using the following protocol.
(§2) This protocol utilizes a modified FKBP or cyclophilin destabilizing mutant to determine the bioactivity of FKBP binding compounds or cyclophilin binding compounds in whole cell assay.
(§3) DMEM, DMEM without Phenol Red, 10% FBS, 1× Sodium Pyruvate, 1× Glutamax. Add 125 μl of media with compound per well.
(§4) Plate HeLa-FKBP12 cells (for FKBP binding compounds) or HeLa-CyclophilinA cells (for cyclophilin binding compounds) and seed overnight at 5 k/well (approximately ˜18 hrs.). Using a multi-channel pipet, take out the old media and add ˜125 ul of new media with compounds. Compounds are diluted using DMEM without Phenol Red, 10% FBS, 1× Sodium Pyruvate, 1× Glutamax. Add 125 μL of media with compound per well. Cells are treated with compounds at concentration: 30, 10, 3.33, 1.11, 0.37, 0.12, 0.04 and 0.013 uM. Time points are taken at 72 hrs and plate read using plate reader with excitation/emission: 575/620.
(§5) Cell binding/permeability is calculated in fold-change (Total RFU of treated samples/total RFU of DMSO treated samples or total RFU above background (Total RFU minus total RFU of DMSO treated samples).

FKBP12 [1] = molecular target: T2, FKBP12 (Homo sapiens, UniProt P62942); assay: SPR binding of compound (analyte) to immobilized FKBP12; settings: for Kd: read-out: SPR affinity to FKBP12: KD, 25° C., Table 7
Method: This protocol utilizes Surface Plasmon Resonance (SPR) as a method to determine kinetics (KD, Ka, Kd) for the binding of compound (analyte) to immobilized FKBP12 (ligand).
Compound in 100% DMSO (in-house), 10×HBS-P+ buffer (GE Healthcare BR-1006-71), Assay buffer (1×HBS-P+ buffer, 1% DMSO), 12×HIS tagged FKBP12 (in-house).
Experiments are performed at 25° C. Stock solution of 12×HIS tagged FKBP12 is diluted to 100 nM in assay buffer (1% DMSO final). Approximately 500-600 RU of FKBP12 is immobilized on one of two flow cells of an activated NTA chip. The second flow cell is not activated as a reference for non-specific interaction of the analyte to the sensor chip. Various concentrations of compound (1 nM-1 μM range), serially diluted into the same assay buffer (1% DMSO final), are injected onto the FKBP12 surface and reference surface at a flow rate of 10 μl/min. The surface is regenerated between analyte injections with 350 mM EDTA.
Experiments are performed at 25° C. Stock solution of 12×HIS tagged FKBP12 is diluted to 100 nM in assay buffer (1% DMSO final). Approximately 500-600 RU of FKBP12 is immobilized on one of two flow cells of an activated NTA chip. The second flow cell is not activated as a reference for non-specific interaction of the analyte to the sensor chip.

FKBP12 [2] = molecular target: T2, FKBP12; assay: AlphaLISA inhibition of binding of biotinylated FK506 to FLAG tagged FKBP12; design: made in house; settings: read-out: Binding affinity to FKBP12 (by displacement of FK506)
Excerpt: The binding of compounds of the invention to FKBP12 can be determined using the following protocol.
This protocol utilizes Perkin Elmers AlphaLISA technology platform to detect FKBP binders by measuring the inhibition of binding of biotinylated FK506 to FLAG tagged FKBP12.
10×TBST Buffer (Boston BioProducts IBB-181), Biotinylated FK506 (in-house), FLAG tagged FKBP (in-house); anti-FLAG Donor beads (PerkinElmer AS103) and Streptavidin Acceptor beads (PerkinElmer AL125); Compounds in DMSO (in-house), FK506.
Add 20 uL of 12.5 nM FKBP-FLAG working stock to each well of the 96-well plate. Add 1 uL of test compound (100% DMSO) to each well of the plate using the Janus MTD head and P20 tips (except control wells). Add 1 uL of DMSO to negative control wells and 1 uL of 50 uM FK506 solution to positive control wells. In the dark, add 20 uL of combined Donor/Acceptor beads to each well. Incubate in the dark for 30 minutes at room temperature. In the dark, add 10 uL of 5 nM biotinylated FK506 working stock to each well. Incubate in the dark for 60 minutes at room temperature. Protect plate from light until reading on Biotek Synergy2 Plate Reader; Alphalisa 96-well protocol (680 excitation/615 emission).

CEP250 [3] = molecular target: T3, CEP250 (Homo sapiens, UniProt Q9BV73); assay: SPR binding of CEP250 (analyte) to immobilized FKBP12-F2 binary complex; settings: 1 μM F2
T3 construct: CEP25011.4 (residues 2134-2231) (in-house); made in house
Method: This protocol utilizes Surface Plasmon Resonance (SPR) as a method to determine kinetics (KD, Ka, Kd) for the binding of CEP250 (analyte) to immobilized FKBP12-F2 binary complex (ligand).
Experiments are performed at 25° C. […] Approximately 200-400 RU of FKBP12 is immobilized on one of two flow cells of an activated NTA chip. The second flow cell is not activated as a reference for non-specific interaction of the analyte to the sensor chip. […] The surface is regenerated between analyte injections with 350 mM EDTA.
The BiaEvaluation software program is used for data fitting. All data is reference subtracted against both the reference flow cell and a buffer injection. For kinetic analyses, data is locally fit to a 1:1 interaction model.

CEP250 [4] = molecular target: T4, CEP250 (Homo sapiens, UniProt P62942+Q9BV73); assay: Crystal structure analysis of FKBP12-compound-CEP250 ternary complexes
T4 construct: CEP25011.4 (residues 2134-2231) (in-house); made in house
Method: This protocol describes the crystallization and structure determination method for structures of FKBP12-Compound 2-CEP250 and FKBP12-F11-CEP250 ternary complexes.
A 3:1 molar excess of FKBP12-F2 or FKBP12-F11 binary complex is added to CEP25011.4 and incubated at 4° C. overnight to complete ternary complex formation. Pure ternary complex is isolated by gel filtration purification on a Superdex 200 column in 12.5 mM HEPES pH 7.4, 75 mM NaCl. Purified complex (at 10-20 mg/ml) is subjected to crystallization at 22° C. using sitting drop vapor diffusion. FKBP12-F2-CEP250 crystals grow in a well solution containing 0.2 M sodium malonate, 0.1 M HEPES 7.0, 21% PEG 3350. FKBP12-F11-CEP250 crystals grow in a well solution containing 0.1 M Tris pH 8.5, 0.2 M trimethylamine N-oxide, 22-24% PEG2000 MME. For data collection crystals are transferred to a solution containing mother liquor supplemented with 20-25% glycerol, and then frozen in liquid nitrogen. Diffraction datasets are collected at the Advanced Photon Source (APS) and processed with the HKL program. Molecular replacement solutions are obtained using the program PHASER in the CCP4 suite, using the published structure of FKBP12 (PDB-ID 1FKD) as a search model. Subsequent model building and refinement are performed according to standard protocols with the software packages CCP4 and COOT.

HeLa-FKBP12 cells = assay: Biosensor cell permeability assay (FKBP destabilizing mutant), HeLa-FKBP12 cells; type: cell-based; settings: 72 hrs
Method: as §1, §2, §3, §4, §5

CEP250 [5] = molecular target: T3, CEP250; assay: ITC binding of FKBP12-compound binary complexes to CEP250; settings: FKBP12 10 μM + ligand 20 μM in cell, 298 K; for Kd: calculated from Ka = 1/Kd
[6] = FKBP12-compound-CEP250 crystal structure

T2 sequence (P62942 whole entry, species assumed): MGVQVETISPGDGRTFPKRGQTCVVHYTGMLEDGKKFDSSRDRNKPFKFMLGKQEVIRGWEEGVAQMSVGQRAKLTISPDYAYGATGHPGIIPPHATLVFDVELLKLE
T4 sequence (Q9BV73 2134-2231): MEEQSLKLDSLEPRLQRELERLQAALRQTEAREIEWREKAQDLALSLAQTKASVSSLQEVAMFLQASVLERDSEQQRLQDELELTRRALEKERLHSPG
T4 sequence (P62942 whole entry, the tested form may be a part): as the sequence (P62942 whole entry, species assumed) above
T1 sequence (P62937 whole entry, species assumed): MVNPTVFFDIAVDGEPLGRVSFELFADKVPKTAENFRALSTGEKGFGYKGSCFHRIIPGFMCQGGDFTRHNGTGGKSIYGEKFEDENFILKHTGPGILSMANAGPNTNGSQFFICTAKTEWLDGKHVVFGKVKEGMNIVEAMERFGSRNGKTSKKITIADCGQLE

With `C/C=C/C[C@@H](C)[C@@H](O)[C@H]1C(=O)N[C@@H](CC)C(=O)N(C)CC(=O)N(C)[C@H](C(C)C)C(=O)N[C@@H](C(C)C)C(=O)N(C)[C@@H](CC(C)C)C(=O)N[C@@H](C)C(=O)N[C@H](C)C(=O)N(C)[C@@H](CC(C)C)C(=O)N(C)[C@@H](CC(C)C)C(=O)N(C)[C@@H](C(C)C)C(=O)N1C` [Compound C42] the “% signal” value (Cyclophilin A) was 1.26%, the IC50 (Cyclophilin A) was less than 2 µM and the “% inhibition of CsA binding to Cyclophilin A” value (“% inhibition of CsA binding” below) (Cyclophilin A) was 98.74%. For the same compound, the IC50 (HeLa-CyclophilinA cells) was greater than 3 µM.

For `C/C=C/C[C@@H](C)[C@@H](O)[C@H]1C(=O)N[C@@H](CC)C(=O)N(C)CC(=O)N(C)[C@@H](CCCC)C(=O)N[C@@H](C(C)C)C(=O)N(C)[C@@H](CC(C)C)C(=O)N[C@@H](C)C(=O)N[C@H](C)C(=O)N(C)[C@@H](CC(C)C)C(=O)N(C)[C@@H](CC(C)C)C(=O)N(C)[C@@H](C(C)C)C(=O)N1C` [Compound C43], the “% signal” value (Cyclophilin A) was 0.29%, the IC50 (Cyclophilin A) was less than 2 µM and the “% inhibition of CsA binding” value (Cyclophilin A) was 99.71%. For the same compound, the IC50 (HeLa-CyclophilinA cells) was less than 3 µM.

With `C/C=C/C[C@@H](C)[C@@H](O)[C@H]1C(=O)N[C@@H](CC)C(=O)N(C)CC(=O)N(C)[C@@H](CCC)C(=O)N[C@@H](C(C)C)C(=O)N(C)[C@@H](CC(C)C)C(=O)N[C@@H](C)C(=O)N[C@H](C)C(=O)N(C)[C@@H](CC(C)C)C(=O)N(C)[C@@H](CC(C)C)C(=O)N(C)[C@@H](C(C)C)C(=O)N1C` [Compound C44] the “% signal” value (Cyclophilin A) was −0.07%, the IC50 (Cyclophilin A) was less than 2 µM and the “% inhibition of CsA binding” value (Cyclophilin A) was 100.07%. The IC50 (HeLa-CyclophilinA cells) was less than 3 µM.

In the case of `CCC(Cc1ccccc1)C1C=CCC=CCC(C)C(O)C(C)C2CCC(C)C(O)(CC(=O)N3CCCCC3C(=O)O1)O2` (stereo not drawn) [Compound F1], the Kd (FKBP12 [1]) is reported as 0.0715 µM and the IC50 (FKBP12 [2]) is reported as 0.355 µM.

In the case of `CC[C@H](Cc1ccccc1)[C@@H]1/C=C/C/C=C/C[C@@H](C)[C@H](O)[C@@H](C)[C@@H]2CC[C@@H](C)C(=O)C(O)(O2)C(=O)N2CCCC[C@H]2C(=O)O1` [Compound F2, (2S)-1-((4R,7S)-7-((2R,3S,4R,6E,9E,11R,12R)-12-benzyl-3,11-dihydroxy-4-methyltetradeca-6,9-dien-2-yl)-2-hydroxy-4-methyl-3-oxooxepane-2-carbonyl)piperidine-2-carboxylic acid C-11 lactone], the Ka (CEP250 [3]; FKBP12/F2 complex to CEP25011.4 (residues 2134-2231)) is reported as 571000 M⁻¹ s⁻¹, the Ka (CEP250 [3]; FKBP12/F2 complex to CEP25029.2 (residues 1982-2231)) is reported as 311000 M⁻¹ s⁻¹ and the “buried surface area of CEP250 contributed by FKBP12” value (CEP250 [4]; [6]) is reported as 663 Å^2. The “buried surface area of CEP250 contributed by the compound” value (CEP250 [4]; [6]) was 232 Å^2 and 241 Å^2, the “total buried surface area of CEP250” value (CEP250 [4]; [6]) was 865 Å^2 and the “total buried surface area of the ternary complex” value (CEP250 [4]; [6]) was 1759 Å^2. For the same compound, the “binding interactions between compound and CEP250 that are van der Waals or pi-pi interactions” value (CEP250 [4]; ternary complex) was 100%, the Ka (FKBP12 [1]; Example 10, 25° C., 1:1 interaction model) was 45000 M⁻¹ s⁻¹ and the Kd (FKBP12 [1]) was 0.0126 µM. The IC50 (HeLa-FKBP12 cells) was less than 1 µM, the ΔG (CEP250 [5]; CEP25011.4 68 μM in syringe) was −40.75 kJ*mol −mol−1 and the ΔH (CEP250 [5]; CEP25011.4 68 μM in syringe) was −49.37 kJ*mol −mol−1. The “−T*ΔS” value (CEP250 [5]; CEP25011.4 68 μM in syringe) was 8.62 kJ*mol −mol−1, the Kd (CEP250 [5]; CEP25011.4 68 μM in syringe) was 0.07 µM and the ΔG (CEP250 [5]; CEP25029.4 118 μM in syringe) was −38.41 kJ*mol −mol−1. For the same compound, the ΔH (CEP250 [5]; CEP25029.4 118 μM in syringe) was −52.21 kJ*mol −mol−1, the “−T*ΔS” value (CEP250 [5]; CEP25029.4 118 μM in syringe) was 13.80 kJ*mol −mol−1 and the Kd (CEP250 [5]; CEP25029.4 118 μM in syringe) was 0.19 µM. It also gave an IC50 (FKBP12 [2]) of 0.0015 µM.

— US20200199102A1, “COMPOUNDS THAT PARTICIPATE IN COOPERATIVE BINDING AND USES THEREOF” (Revolution Medicines, Inc., priority 2017, published 2020)
